From US20240101576A1, “HETEROCYCLIC INHIBITORS OF EGFR AND/OR HER2, FOR USE IN THE TREATMENT OF CANCER” (Scorpion Therapeutics, Inc., priority 2020, published 2024)

Tests used:
Format in all cases: cell-based
EGFR WT (Ba/F3 cells) = molecular target: T1, EGFR WT (Ba/F3 cells) (Homo sapiens, UniProt P00533); experiment: Inhibitor activity on EGFR-dependent cell growth (CellTiter-Glo, 72 h), Ba/F3 EGFR WT; settings: read-out: BaF3 WT IC50
T1 construct: expressed in transfected cells; host or cells: Ba/F3 (murine pro-B cells), retroviral transduction, puromycin selection, maintained with EGF
T1 sequence (P00533 25-1210): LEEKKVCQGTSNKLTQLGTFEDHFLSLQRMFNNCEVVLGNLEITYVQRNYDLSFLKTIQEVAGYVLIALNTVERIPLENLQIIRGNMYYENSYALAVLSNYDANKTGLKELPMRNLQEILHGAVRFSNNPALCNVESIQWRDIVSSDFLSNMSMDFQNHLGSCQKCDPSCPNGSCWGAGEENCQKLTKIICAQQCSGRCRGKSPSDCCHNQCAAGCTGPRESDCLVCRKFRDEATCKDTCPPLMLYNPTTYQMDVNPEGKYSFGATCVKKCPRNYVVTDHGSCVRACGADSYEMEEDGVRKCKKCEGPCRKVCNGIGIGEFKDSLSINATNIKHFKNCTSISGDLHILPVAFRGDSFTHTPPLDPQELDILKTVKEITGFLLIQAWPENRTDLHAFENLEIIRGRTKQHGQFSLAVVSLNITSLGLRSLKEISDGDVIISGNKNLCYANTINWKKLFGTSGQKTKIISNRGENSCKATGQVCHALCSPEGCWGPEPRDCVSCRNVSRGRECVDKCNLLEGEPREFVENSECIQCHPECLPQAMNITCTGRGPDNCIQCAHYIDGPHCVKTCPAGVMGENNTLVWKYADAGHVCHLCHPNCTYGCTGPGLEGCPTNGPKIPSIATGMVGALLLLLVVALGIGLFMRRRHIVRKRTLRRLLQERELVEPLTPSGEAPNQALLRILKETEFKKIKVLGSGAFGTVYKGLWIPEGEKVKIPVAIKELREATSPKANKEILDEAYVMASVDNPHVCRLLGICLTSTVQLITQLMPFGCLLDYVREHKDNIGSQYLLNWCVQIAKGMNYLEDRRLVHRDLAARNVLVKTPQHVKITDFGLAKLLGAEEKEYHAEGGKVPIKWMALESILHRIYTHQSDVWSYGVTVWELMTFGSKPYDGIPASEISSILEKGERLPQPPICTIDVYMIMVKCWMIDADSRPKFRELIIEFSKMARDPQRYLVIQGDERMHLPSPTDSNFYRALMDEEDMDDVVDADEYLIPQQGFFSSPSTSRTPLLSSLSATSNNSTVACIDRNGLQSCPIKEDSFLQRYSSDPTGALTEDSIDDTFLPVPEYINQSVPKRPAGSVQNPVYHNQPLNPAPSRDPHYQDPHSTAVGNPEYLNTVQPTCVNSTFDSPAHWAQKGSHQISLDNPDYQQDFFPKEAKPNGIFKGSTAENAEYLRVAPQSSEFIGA
Method in brief: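 This growth assay used Ba/F3 cells that depend on wild-type EGFR and are kept in EGF without IL3. Compounds were made up as 10 mM DMSO stocks and diluted 3-fold over 10 points. 120 nL went onto 600 cells/well. After 72 hours, 40 μL CellTiter-Glo was added and luminescence read on EnVision after 30 min.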

[1] = molecular target: T2, EGFR exon 20 NPG Ins D770_N771 (Ba/F3 cells) (Homo sapiens, UniProt P00533, INS770NPG); experiment: Inhibitor activity on EGFR-dependent cell growth (CellTiter-Glo, 72 h), Ba/F3 EGFR exon 20 NPG Ins; settings: read-out: BaF3 NPG IC50
T2 construct: expressed in transfected cells; host or cells: Ba/F3 (murine pro-B cells), retroviral transduction, puromycin selection, IL3-independent pool
T2 sequence (P00533 with tags, fused parts or gaps INS770NPG): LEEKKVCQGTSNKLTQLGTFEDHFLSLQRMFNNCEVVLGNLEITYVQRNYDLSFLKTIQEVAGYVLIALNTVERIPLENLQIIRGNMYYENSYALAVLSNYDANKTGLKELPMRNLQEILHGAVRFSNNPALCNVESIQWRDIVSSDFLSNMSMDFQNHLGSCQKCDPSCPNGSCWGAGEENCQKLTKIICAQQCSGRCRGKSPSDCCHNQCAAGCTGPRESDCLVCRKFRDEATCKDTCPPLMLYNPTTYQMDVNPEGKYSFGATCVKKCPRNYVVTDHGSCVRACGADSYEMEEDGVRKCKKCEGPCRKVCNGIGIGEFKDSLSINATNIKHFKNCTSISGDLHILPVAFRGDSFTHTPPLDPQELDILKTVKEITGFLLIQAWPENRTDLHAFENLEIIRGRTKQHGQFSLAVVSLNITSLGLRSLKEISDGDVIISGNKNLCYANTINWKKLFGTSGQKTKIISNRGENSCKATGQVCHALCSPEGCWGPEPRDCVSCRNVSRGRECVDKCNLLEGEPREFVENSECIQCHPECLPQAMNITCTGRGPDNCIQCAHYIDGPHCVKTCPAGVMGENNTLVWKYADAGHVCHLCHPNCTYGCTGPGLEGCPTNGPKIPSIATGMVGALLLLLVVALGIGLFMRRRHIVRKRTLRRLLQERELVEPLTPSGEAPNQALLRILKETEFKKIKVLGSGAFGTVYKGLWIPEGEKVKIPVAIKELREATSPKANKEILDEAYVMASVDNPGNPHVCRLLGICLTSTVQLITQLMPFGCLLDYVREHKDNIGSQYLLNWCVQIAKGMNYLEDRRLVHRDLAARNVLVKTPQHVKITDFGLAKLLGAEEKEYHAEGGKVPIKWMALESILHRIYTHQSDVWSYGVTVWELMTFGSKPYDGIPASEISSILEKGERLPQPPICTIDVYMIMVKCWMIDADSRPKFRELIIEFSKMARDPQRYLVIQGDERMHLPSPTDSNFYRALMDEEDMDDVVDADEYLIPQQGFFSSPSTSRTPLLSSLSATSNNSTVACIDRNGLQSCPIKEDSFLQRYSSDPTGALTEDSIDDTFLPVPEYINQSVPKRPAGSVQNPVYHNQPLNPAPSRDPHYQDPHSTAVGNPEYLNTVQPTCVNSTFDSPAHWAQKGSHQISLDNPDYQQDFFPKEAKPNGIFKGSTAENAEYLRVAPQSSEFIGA
Method in brief: (§1)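 IC50s derive from a sigmoidal dose–response fit of CellTiter-Glo signal. The signal was normalised between […]-treated cells and cell-free medium. Ba/F3 mutant-EGFR cells, seeded at 400–800/well depending on the line, had 72 h of exposure to a 10-point, 3-fold compound series.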

[2] = molecular target: T3, EGFR exon 20 ASV Ins V769_D770 (Ba/F3 cells) (Homo sapiens, UniProt P00533, INS769ASV); experiment: Inhibitor activity on EGFR-dependent cell growth (CellTiter-Glo, 72 h), Ba/F3 EGFR exon 20 ASV Ins; settings: read-out: BaF3 ASV IC50
T3 construct: expressed in transfected cells; host or cells: Ba/F3 (murine pro-B cells), retroviral transduction, puromycin selection, IL3-independent pool
Method in brief: as §1

[3] = molecular target: T4, EGFR exon 20 SVD Ins D770_N771 (Ba/F3 cells) (Homo sapiens, UniProt P00533, INS770SVD); experiment: Inhibitor activity on EGFR-dependent cell growth (CellTiter-Glo, 72 h), Ba/F3 EGFR exon 20 SVD Ins; settings: read-out: BaF3 SVD IC50
T4 construct: expressed in transfected cells; host or cells: Ba/F3 (murine pro-B cells), retroviral transduction, puromycin selection, IL3-independent pool
Method in brief: as §1

EGFR (CUTO14 cells) = EGFR (CUTO14 cells) (Homo sapiens, UniProt P00533); experiment: Inhibitor activity on EGFR phosphorylation (pEGFR AlphaLISA, 2 h), CUTO14 cells
Description: Example B. Inhibitor Activity on EGFR phosphorylation (pEGFR)
EGFR mutant Ba/F3 cells were generated by transduction with retrovirus containing vectors expressing EGFR L858R, EGFR exon 19del, EGFR L858R/C797S, EGFR exon 20 NPG Ins D770_N771, EGFR exon 20 ASV Ins V769_D770, or EGFR exon 20 SVD Ins D770_N771 genes along with a puromycin selection marker. Transduced cells are selected with puromycin for 7 days and are then be transferred into culture media without Interleukin 3 (IL3). Surviving cells are confirmed to express EGFR by Western blot and maintained as a pool. CUTO14 cells were obtained from Dr. Robert C. Doebele at the University of Colorado. The IC50 date are included in Table 6 and Table 7.
(§2) 1.1 Cells are harvested from flask into cell culture medium and the cell number counted.
1.2 Cells are diluted with culture medium to the desired density and 40 μL of cell suspension is added into each well of 384-well cell culture plate and the seeding density is 50K cells/well (Ba/F3) or 12.5K cells/well (CUTO14).
(§3) 2 Compound Preparation and Treatment
(§4) 2.1 Test compounds are dissolved to 10 mM in a DMSO stock solution. 45 μL of stock solution is transferred to a 384 polypropylene plate (pp-plate). Perform 3-fold, 10-point dilution via transferring 15 μL compound into 30 μL DMSO using a TECAN (EVO200) liquid handler.
(§5) 2.2 Spin plates at room temperature at 1,000 RPM for 1 minute.
2.3 Transfer 5 nL of diluted compound from compound source plate into the cell plate.
2.4 After compound treatment for 2 hours, perform pEGFR detection by AlphaLISA for compound treatment plates as described in “Detection” section.
3 Detection by pEGFR AlphaLISA (Perkin-Elmer)
3.1 Plates are removed from incubators and equilibrated at room temperature for 10 minutes, and media was removed
3.2 10 μL of lysis buffer is added and plates shaken at 600 rpm for 1 hr.
3.3 Prepare acceptor mix just before use and dispense 5 μL of acceptor mix to all the wells. Shake 350 rpm for Ihr in the dark
3.4 Prepare donor mix under low light conditions prior to use. Dispense 5 μL of donor mix to all the wells. Mix well on the shaker, seal and wrap in aluminum foil and incubate 1.5 hrs at room temperature in the dark
3.5 Transfer 18.5 μL mixture to OptiPlate 384, and read using an Envision. The IC50 date were included in Table 6 and Table 7.

EGFR L858R (Ba/F3 cells) = molecular target: T5, EGFR L858R (Ba/F3 cells) (Homo sapiens, UniProt P00533, L858R); experiment: Inhibitor activity on EGFR-dependent cell growth (CellTiter-Glo, 72 h), Ba/F3 EGFR L858R; settings: read-out: BaF3 L858R IC50
T5 construct: expressed in transfected cells; host or cells: Ba/F3 (murine pro-B cells), retroviral transduction, puromycin selection, IL3-independent pool
T5 sequence (P00533 25-1210 L858R): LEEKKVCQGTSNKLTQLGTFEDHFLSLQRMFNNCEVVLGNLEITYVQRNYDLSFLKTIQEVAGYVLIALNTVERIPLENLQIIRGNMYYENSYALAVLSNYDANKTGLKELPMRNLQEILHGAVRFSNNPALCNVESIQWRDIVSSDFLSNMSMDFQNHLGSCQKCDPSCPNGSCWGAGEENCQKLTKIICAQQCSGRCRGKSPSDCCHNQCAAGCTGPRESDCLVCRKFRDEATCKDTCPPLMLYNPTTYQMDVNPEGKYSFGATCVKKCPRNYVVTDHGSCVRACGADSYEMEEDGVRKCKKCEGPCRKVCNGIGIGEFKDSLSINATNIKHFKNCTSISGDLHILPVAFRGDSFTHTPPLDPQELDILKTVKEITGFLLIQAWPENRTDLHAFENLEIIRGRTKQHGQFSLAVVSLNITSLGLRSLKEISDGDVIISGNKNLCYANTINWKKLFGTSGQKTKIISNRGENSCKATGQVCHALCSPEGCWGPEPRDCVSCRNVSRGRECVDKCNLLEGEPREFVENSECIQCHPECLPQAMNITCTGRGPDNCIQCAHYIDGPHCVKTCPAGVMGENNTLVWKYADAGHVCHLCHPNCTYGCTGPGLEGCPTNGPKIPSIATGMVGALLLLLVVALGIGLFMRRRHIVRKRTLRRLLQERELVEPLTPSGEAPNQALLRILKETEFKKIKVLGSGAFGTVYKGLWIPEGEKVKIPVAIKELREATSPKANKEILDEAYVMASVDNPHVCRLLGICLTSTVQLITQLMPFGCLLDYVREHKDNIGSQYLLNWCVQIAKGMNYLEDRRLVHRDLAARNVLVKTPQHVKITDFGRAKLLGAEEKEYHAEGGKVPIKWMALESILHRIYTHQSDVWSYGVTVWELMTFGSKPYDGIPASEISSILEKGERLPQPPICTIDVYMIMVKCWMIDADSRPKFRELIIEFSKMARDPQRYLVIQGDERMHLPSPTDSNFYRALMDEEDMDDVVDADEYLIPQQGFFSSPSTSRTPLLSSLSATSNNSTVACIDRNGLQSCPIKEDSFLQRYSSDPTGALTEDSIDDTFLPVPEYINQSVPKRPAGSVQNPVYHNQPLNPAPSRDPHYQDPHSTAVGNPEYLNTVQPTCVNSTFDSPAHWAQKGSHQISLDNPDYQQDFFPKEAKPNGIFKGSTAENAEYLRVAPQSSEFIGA
Description: (§6) Example A. Inhibitor Activity on EGFR-Dependent Cell Growth
(§7) Cell lines are generated by transducing Ba/F3 cells with retroviruses containing vectors with EGFR WT, EGFR L858R, EGFR exon 19del, EGFR L858R/C797S, EGFR exon 20 NPG Ins D770_N771, EGFR exon 20 ASV Ins V769_D770, EGFR exon 20 SVD Ins D770_N771, or EGFR exon 20 FQEA Ins A763_V764 genes and a puromycin selection marker. Transduced cells are selected with puromycin for 7 days and are then be transferred into culture media without Interleukin 3 (IL3). EGFR WT cells are maintained with supplemental EGF. Surviving cells are confirmed to express EGFR by Western blot and maintained as a pool. The IC50 date were included in Table 6 and Table 7.
as §2
(§8) 1.2 Cells are diluted with culture medium to the desired density and 40 μL of cell suspension is added into each well of 384-well cell culture plate and the seeding density is 800 (FQEA, exon 19del), 600 (WT, NPG, L858R/C797S), or 400 (ASV, SVD, L858R) cells/well.
as §3, §4, §5
(§9) 2.3 Transfer 120 nL of diluted compound from compound source plate into the cell plate.
(§10) 2.4 After compound treatment for 72 hours, perform CTG detection for compound treatment plates as described in “Detection” section.
(§11) 3.1 Plates are removed from incubators and equilibrated at room temperature for 15 minutes.
(§12) 3.2 Thaw the CellTiter Glo reagents and allow to equilibrate to room temperature before the experiment.
(§13) 3.3 Add 40 μL of CellTiter-Glo reagent into each well (at 1:1 to culture medium). Then place the plates at room temperature for 30 min followed by reading on EnVision.
(§14) 4.1 Inhibition activity is calculated following the formula below:
(§15) % Inhibition=100×(LumHC−LumSample)/(LumHC−LumLC) • where HC is obtained from cells treated with 0.1% DMSO only; and LC is obtained from culture medium only.
(§16) 4.2 2. Calculate the IC50 by fitting the Curve using Xlfit (v5.3.1.3), equation 201.
(§17) Y=Bottom+(Top−Bottom)/(1+10^((Log IC50−X)*HillSlope))

[4] = molecular target: EGFR exon 19del (Ba/F3 cells) (Homo sapiens, UniProt P00533); experiment: Inhibitor activity on EGFR-dependent cell growth (CellTiter-Glo, 72 h), Ba/F3 EGFR exon 19del; settings: Ba/F3 EGFR exon 19del cell growth, read-out: BaF3 Del19 IC50
EGFR exon 19del (Ba/F3 cells), sequence (P00533 with tags, fused parts or gaps DEL746-750): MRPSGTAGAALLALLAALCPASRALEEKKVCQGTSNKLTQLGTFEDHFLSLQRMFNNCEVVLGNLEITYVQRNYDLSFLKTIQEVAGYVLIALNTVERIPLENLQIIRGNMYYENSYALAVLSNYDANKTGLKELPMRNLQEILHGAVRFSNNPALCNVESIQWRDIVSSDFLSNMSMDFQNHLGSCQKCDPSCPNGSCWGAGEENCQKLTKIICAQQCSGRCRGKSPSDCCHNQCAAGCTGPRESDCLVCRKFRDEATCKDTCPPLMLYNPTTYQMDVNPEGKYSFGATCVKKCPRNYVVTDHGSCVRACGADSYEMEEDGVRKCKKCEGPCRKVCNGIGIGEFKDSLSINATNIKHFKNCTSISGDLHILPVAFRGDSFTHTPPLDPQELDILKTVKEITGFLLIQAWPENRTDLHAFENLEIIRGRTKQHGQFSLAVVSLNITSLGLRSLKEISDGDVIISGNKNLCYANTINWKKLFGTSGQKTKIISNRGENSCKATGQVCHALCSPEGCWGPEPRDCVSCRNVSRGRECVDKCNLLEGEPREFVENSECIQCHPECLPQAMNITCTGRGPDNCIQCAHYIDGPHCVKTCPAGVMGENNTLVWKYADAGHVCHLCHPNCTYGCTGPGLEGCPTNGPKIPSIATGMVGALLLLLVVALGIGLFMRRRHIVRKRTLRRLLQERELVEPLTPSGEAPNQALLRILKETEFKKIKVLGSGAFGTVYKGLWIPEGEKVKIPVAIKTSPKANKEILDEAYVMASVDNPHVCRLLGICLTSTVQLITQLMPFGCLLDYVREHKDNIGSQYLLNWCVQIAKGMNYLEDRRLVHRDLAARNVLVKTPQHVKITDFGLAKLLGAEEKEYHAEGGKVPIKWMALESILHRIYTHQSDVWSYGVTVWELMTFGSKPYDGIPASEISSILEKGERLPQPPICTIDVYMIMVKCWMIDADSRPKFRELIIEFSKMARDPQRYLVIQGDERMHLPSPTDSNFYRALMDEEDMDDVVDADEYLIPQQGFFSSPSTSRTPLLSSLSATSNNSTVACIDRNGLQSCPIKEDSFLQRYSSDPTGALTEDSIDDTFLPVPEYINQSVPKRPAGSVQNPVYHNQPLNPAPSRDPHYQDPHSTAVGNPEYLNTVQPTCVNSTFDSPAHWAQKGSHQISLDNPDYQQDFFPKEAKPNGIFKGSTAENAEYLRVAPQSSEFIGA
Description: as §6, §7, §2, §8, §3, §4, §5, §9, §10, §11, §12, §13, §14, §15, §16, §17

[5] = molecular target: T6, EGFR exon 20 FQEA Ins A763_V764 (Ba/F3 cells) (Homo sapiens, UniProt P00533, INS763FQEA); experiment: Inhibitor activity on EGFR-dependent cell growth (CellTiter-Glo, 72 h), Ba/F3 EGFR exon 20 FQEA Ins; settings: read-out: BaF3 FQEA IC50
T6 construct: expressed in transfected cells; host or cells: Ba/F3 (murine pro-B cells), retroviral transduction, puromycin selection, IL3-independent pool
Method in brief: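 Ba/F3, retrovirally transduced, puromycin-selected, grown without IL3; cells/well: L858R 400, L858R/C797S 600, exon 19del 800, FQEA 800. Cpds from 10 mM DMSO stock, 3-fold ×10 dilution, 120 nL per well; 72 h. CTG readout; IC50 via Hill equation.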

[6] = molecular target: T2, EGFR exon 20 NPG Ins D770_N771 (Ba/F3 cells); experiment: Inhibitor activity on EGFR phosphorylation (pEGFR AlphaLISA, 2 h), Ba/F3 EGFR exon 20 NPG Ins
Method in brief: (§18)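 pEGFR AlphaLISA readout after 2 h compound exposure; IC50 from 10-point, 3-fold dilutions (10 mM DMSO stock). Ba/F3 mutant lines grown without IL3, 50K cells/well; CUTO14 12.5K cells/well.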

[7] = molecular target: T3, EGFR exon 20 ASV Ins V769_D770 (Ba/F3 cells); experiment: Inhibitor activity on EGFR phosphorylation (pEGFR AlphaLISA, 2 h), Ba/F3 EGFR exon 20 ASV Ins; settings: EGFR phosphorylation, AlphaLISA, 2 hours; read-out: ASV IC50 (pEGFR)
Method in brief: as §18

Measured: IC50

COc1c(Cl)cccc1Nc1c(-c2ccncc2)[nH]c2c1C(=O)NCC2C[C@@H]1CN(C)CCO1 (single isomer, unassigned) [Compound 646]
> 1 µM: EGFR WT (Ba/F3 cells) | [1] | [2] | [3]
< 0.1 µM: EGFR (CUTO14 cells)

C=CC(=O)N1CCC2(CC1)CNC(=O)c1c2[nH]c(-c2ccnc(C)n2)c1Nc1cc(F)cc(F)c1OC [compound 641]
0.1 to 1 µM: EGFR WT (Ba/F3 cells)
< 0.1 µM: [1] | [2] | [3] | EGFR (CUTO14 cells)

COc1c(F)cccc1Nc1c(-c2ccnc(C)n2)[nH]c2c1C(=O)NCC21CCN(C(=O)/C=C/CN(C)C)CC1 [compound 649]
0.1 to 1 µM: [1] | [2] | [3] | EGFR (CUTO14 cells)
> 1 µM: EGFR WT (Ba/F3 cells)

COc1c(Cl)cccc1Nc1c(-c2ccnc(Nc3cnn(C)n3)n2)[nH]c2c1C(=O)NCC2 [compound 592, 3-[(3-chloro-2-methoxyphenyl)amino]-2-{2-[(2-methyl-1,2,3-triazol-4-yl)amino]pyrimidin-4-yl}-1H,5H,6H,7H-pyrrolo[3,2-c]pyridin-4-one]
0.1 to 1 µM: EGFR WT (Ba/F3 cells)
< 0.1 µM: [1] | [2] | [3] | EGFR (CUTO14 cells)

COCc1ccc2nccc(-c3[nH]c4c(c3Nc3cccc(Cl)c3OC)C(=O)NCC4)c2n1 [compound 679, 3-[(3-chloro-2-methoxyphenyl)amino]-2-[6-(methoxymethyl)-1,5-naphthyridin-4-yl]-1H,5H,6H,7H-pyrrolo[3,2-c]pyridin-4-one]
not listed: EGFR (CUTO14 cells) | [6] | [7]
< 0.1 µM: all other assays above

COc1c(Cl)cccc1Nc1c(-c2ccnc(C)n2)[nH]c2c1C(=O)NC[C@@H]2C[C@@H]1COCCO1 [Compound 552, (7S)-3-[(3-chloro-2-methoxyphenyl)amino]-7-[(2R)-1,4-dioxan-2-ylmethyl]-2-(2-methylpyrimidin-4-yl)-1H,5H,6H,7H-pyrrolo[3,2-c]pyridin-4-one]
< 0.1 µM: [1] | EGFR (CUTO14 cells)
> 1 µM: EGFR WT (Ba/F3 cells)

CCO[C@@H](C)c1ccc2nccc(-c3[nH]c4c(c3Nc3cccc(Cl)c3OC)C(=O)NCC4)c2n1 [compound 754, 3-[(3-chloro-2-methoxyphenyl)amino]-2-[6-[(1S)-1-ethoxyethyl]-1,5-naphthyridin-4-yl]-1H,5H,6H,7H-pyrrolo[3,2-c]pyridin-4-one; trifluoroacetic acid]
not listed: EGFR (CUTO14 cells) | [6] | [7]
< 0.1 µM: all other assays above

COc1c(F)cccc1Nc1c(-c2ccncc2F)[nH]c2c1C(=O)NC[C@H]2C[C@@H]1CCO1 [Compound 422a, (7R)-3-[(3-fluoro-2-methoxyphenyl)amino]-2-(3-fluoropyridin-4-yl)-7-[(2R)-oxetan-2-ylmethyl]-1H,5H,6H,7H-pyrrolo[3,2-c]pyridin-4-one]
0.1 to 1 µM: EGFR WT (Ba/F3 cells) | [5]
not listed: EGFR (CUTO14 cells) | [7]
< 0.1 µM: all other assays above

COc1c(Cl)cccc1Nc1c(-c2ccnc3[nH]cnc23)[nH]c2c1C(=O)NCC2 [compound 290]
0.1 to 1 µM: EGFR WT (Ba/F3 cells) | [1]
not listed: EGFR (CUTO14 cells)
< 0.1 µM: all other assays above

COc1ccc2nccc(-c3[nH]c4c(c3Nc3cccc(Cl)c3OC)C(=O)NC[C@H]4C)c2n1 [310a]
not listed: EGFR (CUTO14 cells) | [6] | [7]
< 0.1 µM: all other assays above

COc1c(Cl)cccc1Nc1c(-c2ccnc(C)n2)[nH]c2c1C(=O)NC[C@H]2CC1COCCO1 (stereo in doubt) [Compound 573, (7R)-3-[(3-chloro-2-methoxyphenyl)amino]-7-[(2R)-1,4-dioxan-2-ylmethyl]-2-(2-methylpyrimidin-4-yl)-1H,5H,6H,7H-pyrrolo[3,2-c]pyridin-4-one]
0.1 to 1 µM: EGFR WT (Ba/F3 cells)
< 0.1 µM: EGFR L858R (Ba/F3 cells) | [4] | [1] | [6]

CC[C@@H]1CNC(=O)c2c1[nH]c(-c1ccnc(N)n1)c2Nc1cccc(Cl)c1OC [189a]
0.1 to 1 µM: EGFR WT (Ba/F3 cells)
not listed: EGFR (CUTO14 cells) | [6] | [7]
< 0.1 µM: all other assays above
